In PubChem BioAssay AID1919014 (Molecular Pharmacology Branch, DTP, NCI, 2023):
Values belong to the molecule of their own block, whether it stands above or below them.

Test system: NCI-H1341 complex spheroids, percent test/control
Assay: Anticancer human tumor NCI-H1341 cell line growth inhibition [AhR];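 note: spheroids exposed to agents for seven days before readout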
Details: for IC50: curve of first compound; for viability, T/C: stronger effect = lower value
In short: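 Spheroids combined tumor cells with HUVEC endothelial cells and human MSCs as stroma. AhR antagonists were paired with standard or investigational drugs, each dosed in half-log steps down from near clinical Cmax, or from 10 microM where Cmax was unknown.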

[1] = second compound 0.1 µM, first compound 0.0316 µM
[2] = second compound 0.1 µM, first compound 0.1 µM
[3] = second compound 0.1 µM, first compound 0.316 µM
[4] = second compound 0.1 µM, first compound 1 µM
[5] = second compound 0.1 µM, first compound 3.16 µM
[6] = second compound 0.1 µM, first compound 10 µM
[7] = second compound 0.316 µM, first compound 0.0316 µM
[8] = second compound 0.316 µM, first compound 0.1 µM
[9] = second compound 0.316 µM, first compound 0.316 µM
[10] = second compound 0.316 µM, first compound 1 µM
[11] = second compound 0.316 µM, first compound 3.16 µM
[12] = second compound 0.316 µM, first compound 10 µM
[13] = second compound 1 µM, first compound 0.0316 µM
[14] = second compound 1 µM, first compound 0.1 µM
[15] = second compound 1 µM, first compound 0.316 µM
[16] = second compound 1 µM, first compound 1 µM
[17] = second compound 1 µM, first compound 3.16 µM
[18] = second compound 1 µM, first compound 10 µM
[19] = second compound 3.16 µM, first compound 0.0316 µM
[20] = second compound 3.16 µM, first compound 0.1 µM
[21] = second compound 3.16 µM, first compound 0.316 µM
[22] = second compound 3.16 µM, first compound 1 µM
[23] = second compound 3.16 µM, first compound 3.16 µM
[24] = second compound 3.16 µM, first compound 10 µM
[25] = second compound 10 µM, first compound 0.0316 µM
[26] = second compound 10 µM, first compound 0.1 µM
[27] = second compound 10 µM, first compound 0.316 µM
[28] = second compound 10 µM, first compound 1 µM
[29] = second compound 10 µM, first compound 3.16 µM
[30] = second compound 10 µM, first compound 10 µM
[31] = second compound 0.1 µM, first compound 0.000949 µM
[32] = second compound 0.1 µM, first compound 0.003 µM
[33] = second compound 0.1 µM, first compound 0.00949 µM
[34] = second compound 0.1 µM, first compound 0.03 µM
[35] = second compound 0.1 µM, first compound 0.0949 µM
[36] = second compound 0.1 µM, first compound 0.3 µM
[37] = second compound 0.316 µM, first compound 0.000949 µM
[38] = second compound 0.316 µM, first compound 0.003 µM
[39] = second compound 0.316 µM, first compound 0.00949 µM
[40] = second compound 0.316 µM, first compound 0.03 µM
[41] = second compound 0.316 µM, first compound 0.0949 µM
[42] = second compound 0.316 µM, first compound 0.3 µM
[43] = second compound 1 µM, first compound 0.000949 µM
[44] = second compound 1 µM, first compound 0.003 µM
[45] = second compound 1 µM, first compound 0.00949 µM
[46] = second compound 1 µM, first compound 0.03 µM
[47] = second compound 1 µM, first compound 0.0949 µM
[48] = second compound 1 µM, first compound 0.3 µM
[49] = second compound 3.16 µM, first compound 0.000949 µM
[50] = second compound 3.16 µM, first compound 0.003 µM
[51] = second compound 3.16 µM, first compound 0.00949 µM
[52] = second compound 3.16 µM, first compound 0.03 µM
[53] = second compound 3.16 µM, first compound 0.0949 µM
[54] = second compound 3.16 µM, first compound 0.3 µM
[55] = second compound 10 µM, first compound 0.000949 µM
[56] = second compound 10 µM, first compound 0.003 µM
[57] = second compound 10 µM, first compound 0.00949 µM
[58] = second compound 10 µM, first compound 0.03 µM
[59] = second compound 10 µM, first compound 0.0949 µM
[60] = second compound 10 µM, first compound 0.3 µM

SMILES: Nc1ccn(C2OC(CO)C(O)C2(F)F)c(=O)n1 (stereo not given) + CC(CO)NC(=O)c1cc(-c2ccc(Cl)cc2)nn(-c2cnn(C)c2)c1=O
IC50 (second compound 0.1 µM): < 31.6 nM
IC50 (second compound 0.316 µM): < 31.6 nM
IC50 (second compound 1 µM): < 31.6 nM
IC50 (second compound 3.16 µM): < 31.6 nM
IC50 (second compound 10 µM): < 31.6 nM
viability, T/C [1]: 28%
viability, T/C [2]: 28%
viability, T/C [3]: 27.7%
viability, T/C [4]: 25.3%
viability, T/C [5]: 27.3%
viability, T/C [6]: 26.4%
viability, T/C [7]: 30.9%
viability, T/C [8]: 29.1%
viability, T/C [9]: 25.6%
viability, T/C [10]: 26.9%
viability, T/C [11]: 24.4%
viability, T/C [12]: 24.1%
viability, T/C [13]: 28.6%
viability, T/C [14]: 29.3%
viability, T/C [15]: 30.5%
viability, T/C [16]: 23.8%
viability, T/C [17]: 26.1%
viability, T/C [18]: 25.9%
viability, T/C [19]: 30.1%
viability, T/C [20]: 29.1%
viability, T/C [21]: 30%
viability, T/C [22]: 24%
viability, T/C [23]: 25.3%
viability, T/C [24]: 27%
viability, T/C [25]: 33.6%
viability, T/C [26]: 29.8%
viability, T/C [27]: 27.4%
viability, T/C [28]: 24.3%
viability, T/C [29]: 22.3%
viability, T/C [30]: 21.4%

SMILES: COc1cc(Nc2ncc3c(n2)-c2ccc(Cl)cc2C(c2c(F)cccc2OC)=NC3)ccc1C(=O)O + Cc1cncc(-c2nc(NCCc3c[nH]c4ccccc34)c3ncn(C(C)C)c3n2)c1
IC50 (second compound 0.1 µM): < 31.6 nM
IC50 (second compound 0.316 µM): < 31.6 nM
IC50 (second compound 1 µM): < 31.6 nM
IC50 (second compound 3.16 µM): < 31.6 nM
IC50 (second compound 10 µM): < 31.6 nM
viability, T/C [1]: 38.2%
viability, T/C [2]: 42.3%
viability, T/C [3]: 38.9%
viability, T/C [4]: 31.2%
viability, T/C [5]: 24.2%
viability, T/C [6]: 21%
viability, T/C [7]: 37.1%
viability, T/C [8]: 37.1%
viability, T/C [9]: 34.9%
viability, T/C [10]: 23.9%
viability, T/C [11]: 26.9%
viability, T/C [12]: 22.3%
viability, T/C [13]: 36.1%
viability, T/C [14]: 39.9%
viability, T/C [15]: 34.3%
viability, T/C [16]: 30.1%
viability, T/C [17]: 25.8%
viability, T/C [18]: 20.5%
viability, T/C [19]: 42.2%
viability, T/C [20]: 37.7%
viability, T/C [21]: 40.2%
viability, T/C [22]: 37.5%
viability, T/C [23]: 27.5%
viability, T/C [24]: 24%
viability, T/C [25]: 25.4%
viability, T/C [26]: 30.3%
viability, T/C [27]: 29.8%
viability, T/C [28]: 24.2%
viability, T/C [29]: 21.2%
viability, T/C [30]: 19.4%

SMILES: CC(C)CC(NC(=O)C(Cc1ccccc1)NC(=O)c1cnccn1)B(O)O (stereo not given) + Cc1ccccc1N=Nc1ccc(NC(=O)c2ccnn2C)c(C)c1
IC50 (second compound 0.1 µM): 5.09 nM
IC50 (second compound 0.316 µM): 5.12 nM
IC50 (second compound 1 µM): 4.96 nM
IC50 (second compound 3.16 µM): 4.3 nM
IC50 (second compound 10 µM): 3.45 nM
viability, T/C [31]: 116%
viability, T/C [32]: 90.2%
viability, T/C [33]: 2.67%
viability, T/C [34]: 0.15%
viability, T/C [35]: 0.06%
viability, T/C [36]: 0.19%
viability, T/C [37]: 92.6%
viability, T/C [38]: 91.1%
viability, T/C [39]: 2.6%
viability, T/C [40]: 0.07%
viability, T/C [41]: 0.07%
viability, T/C [42]: 0.15%
viability, T/C [43]: 83%
viability, T/C [44]: 89.7%
viability, T/C [45]: 3.18%
viability, T/C [46]: 0.12%
viability, T/C [47]: 0.08%
viability, T/C [48]: 0.18%
viability, T/C [49]: 85%
viability, T/C [50]: 71.6%
viability, T/C [51]: 2.5%
viability, T/C [52]: 0.06%
viability, T/C [53]: 0.09%
viability, T/C [54]: 0.2%
viability, T/C [55]: 50.5%
viability, T/C [56]: 62.5%
viability, T/C [57]: 2.63%
viability, T/C [58]: 0.39%
viability, T/C [59]: 0.18%
viability, T/C [60]: 0.31%

SMILES: CC(C)CC(NC(=O)C(Cc1ccccc1)NC(=O)c1cnccn1)B(O)O (stereo not given) + Cc1cncc(-c2nc(NCCc3c[nH]c4ccccc34)c3ncn(C(C)C)c3n2)c1
IC50 (second compound 0.1 µM): 5.11 nM
IC50 (second compound 0.316 µM): 4.76 nM
IC50 (second compound 1 µM): 4 nM
IC50 (second compound 3.16 µM): 3.73 nM
IC50 (second compound 10 µM): < 0.949 nM
viability, T/C [31]: 98.4%
viability, T/C [32]: 89.7%
viability, T/C [33]: 3.87%
viability, T/C [34]: 0.1%
viability, T/C [35]: 0.05%
viability, T/C [36]: 0.16%
viability, T/C [37]: 80.5%
viability, T/C [38]: 83.1%
viability, T/C [39]: 2.53%
viability, T/C [40]: 0.14%
viability, T/C [41]: 0.06%
viability, T/C [42]: 0.12%
viability, T/C [43]: 83.4%
viability, T/C [44]: 65.8%
viability, T/C [45]: 2.45%
viability, T/C [46]: 0.11%
viability, T/C [47]: 0.05%
viability, T/C [48]: 0.5%
viability, T/C [49]: 56.4%
viability, T/C [50]: 66.4%
viability, T/C [51]: 1.23%
viability, T/C [52]: 0.06%
viability, T/C [53]: 0.08%
viability, T/C [54]: 0.14%
viability, T/C [55]: 28%
viability, T/C [56]: 58.4%
viability, T/C [57]: 0.22%
viability, T/C [58]: 0.14%
viability, T/C [59]: 0.15%
viability, T/C [60]: 0.17%

More lines, in order of falling IC50 (second compound 0.1 µM), values ahead:

IC50 (second compound 0.1 µM): 1600 nM
IC50 (second compound 0.316 µM): 1090 nM
IC50 (second compound 1 µM): 1540 nM
IC50 (second compound 3.16 µM): 1490 nM
IC50 (second compound 10 µM): 956 nM
SMILES: CC1COCCN1c1cc(C2(S(C)(=N)=O)CC2)nc(-c2ccnc3[nH]ccc23)n1 (stereo not given) + CC(CO)NC(=O)c1cc(-c2ccc(Cl)cc2)nn(-c2cnn(C)c2)c1=O
viability, T/C [1]: 89.6%
viability, T/C [2]: 83.2%
viability, T/C [3]: 96.7%
viability, T/C [4]: 64.9%
viability, T/C [5]: 29.7%
viability, T/C [6]: 21.9%
viability, T/C [7]: 78.8%
viability, T/C [8]: 93.5%
viability, T/C [9]: 70.1%
viability, T/C [10]: 51.1%
viability, T/C [11]: 32.4%
viability, T/C [12]: 20.4%
viability, T/C [13]: 77.3%
viability, T/C [14]: 88.5%
viability, T/C [15]: 88.4%
viability, T/C [16]: 57.1%
viability, T/C [17]: 35.5%
viability, T/C [18]: 19.6%
viability, T/C [19]: 95.8%
viability, T/C [20]: 86.3%
viability, T/C [21]: 87.8%
viability, T/C [22]: 58.6%
viability, T/C [23]: 31.7%
viability, T/C [24]: 17.6%
viability, T/C [25]: 83.2%
viability, T/C [26]: 84.9%
viability, T/C [27]: 67.9%
viability, T/C [28]: 52.1%
viability, T/C [29]: 24.8%
viability, T/C [30]: 18.8%

IC50 (second compound 0.1 µM): 92.8 nM
IC50 (second compound 0.316 µM): < 31.6 nM
IC50 (second compound 1 µM): 166 nM
IC50 (second compound 3.16 µM): < 31.6 nM
IC50 (second compound 10 µM): < 31.6 nM
SMILES: COc1cccc2c1C(=O)c1c(O)c3c(c(O)c1C2=O)CC(O)(C(=O)CO)CC3OC1CC(N)C(O)C(C)O1 (stereo not given) + Cc1ccccc1N=Nc1ccc(NC(=O)c2ccnn2C)c(C)c1
viability, T/C [1]: 59.7%
viability, T/C [2]: 44.6%
viability, T/C [3]: 37.9%
viability, T/C [4]: 18.2%
viability, T/C [5]: 1.96%
viability, T/C [6]: 4.55%
viability, T/C [7]: 50%
viability, T/C [8]: 48.6%
viability, T/C [9]: 38.2%
viability, T/C [10]: 24.2%
viability, T/C [11]: 2.31%
viability, T/C [12]: 4.21%
viability, T/C [13]: 58.8%
viability, T/C [14]: 51.5%
viability, T/C [15]: 44.6%
viability, T/C [16]: 16.5%
viability, T/C [17]: 2.36%
viability, T/C [18]: 4.45%
viability, T/C [19]: 50.1%
viability, T/C [20]: 48.2%
viability, T/C [21]: 41.1%
viability, T/C [22]: 16.2%
viability, T/C [23]: 3.35%
viability, T/C [24]: 5.99%
viability, T/C [25]: 40.9%
viability, T/C [26]: 41.2%
viability, T/C [27]: 35.9%
viability, T/C [28]: 14.4%
viability, T/C [29]: 5.03%
viability, T/C [30]: 4.31%
